Laboratory results: the supplement of paper PMC10307832

Legend:
Assay in all cases: relative viability (nuclei count vs DMSO), 5 days (fraction); higher = more cells survive
H3255 = test system: H3255
Summary of the method: (§1)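 Lung cancer cell lines, seeded in 1536-well plates, were treated the following day by pin tool with a single drug or with five library-drug doses (not always all listed) in √10 steps on top of a fixed anchor-drug dose. Cells were fixed and nuclei stained in one step after 5 days, and nuclei were counted. Relative viability is the nuclei count for treated wells divided by that for vehicle wells, reported as medians of duplicate plates.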

EMC-BAC-2 = test system: EMC-BAC-2
Summary of the method: as §1

NCI-H2087 = test system: NCI-H2087
Summary of the method: as §1

NCI-H23 = test system: NCI-H23
Summary of the method: as §1

NCI-H2405 = test system: NCI-H2405
Summary of the method: as §1

EPLC-272H = test system: EPLC-272H
Summary of the method: as §1

NCI-H1993 = test system: NCI-H1993
Summary of the method: as §1

HCC-44 = test system: HCC-44
Summary of the method: as §1

NCI-H1355 = test system: NCI-H1355
Summary of the method: as §1

HCC-827 = test system: HCC-827
Summary of the method: as §1

LCLC-103H = test system: LCLC-103H
Summary of the method: as §1

UMC-11 = test system: UMC-11
Summary of the method: as §1

LCLC-97TM1 = test system: LCLC-97TM1
Summary of the method: as §1

NCI-H322M = test system: NCI-H322M
Summary of the method: as §1

NCI-H650 = test system: NCI-H650
Summary of the method: as §1

NCI-H2085 = test system: NCI-H2085
Summary of the method: as §1

NCI-H1563 = test system: NCI-H1563
Summary of the method: as §1

ChaGo-K-1 = test system: ChaGo-K-1
Summary of the method: as §1

NCI-H520 = test system: NCI-H520
Summary of the method: as §1

NCI-H1651 = test system: NCI-H1651
Summary of the method: as §1

Compound: CC(C)Oc1cc(Nc2nc(N[C@@H](C)c3ccc(F)cn3)ncc2Cl)n[nH]1 [AZ23] + CC(C)C[C@H](NC(=O)[C@H](Cc1ccccc1)NC(=O)c1cnccn1)B(O)O [Bortezomib] (partner 0.002 µM)
- relative viability (H3255; first compound 0.01 µM): 0.64
- relative viability (H3255; first compound 0.03162 µM): 1.06
- relative viability (H3255; first compound 0.3162 µM): 0.81
- relative viability (EMC-BAC-2; first compound 0.01 µM): 1.2
- relative viability (EMC-BAC-2; first compound 0.03162 µM): 1.11
- relative viability (EMC-BAC-2; first compound 0.3162 µM): 1.16
- relative viability (NCI-H2087; first compound 0.01 µM): 1.3
- relative viability (NCI-H2087; first compound 0.03162 µM): 0.962
- relative viability (NCI-H2087; first compound 0.3162 µM): 0.778
- relative viability (NCI-H23; first compound 0.03162 µM): 1.12
- relative viability (NCI-H23; first compound 0.3162 µM): 1.04
- relative viability (NCI-H2405; first compound 0.01 µM): 0.963
- relative viability (NCI-H2405; first compound 0.03162 µM): 1.02
- relative viability (NCI-H2405; first compound 0.3162 µM): 0.948
- relative viability (EPLC-272H; first compound 0.01 µM): 0.942
- relative viability (EPLC-272H; first compound 0.03162 µM): 1.02
- relative viability (NCI-H1993; first compound 0.01 µM): 0.911
- relative viability (NCI-H1993; first compound 0.3162 µM): 1.16
- relative viability (HCC-44; first compound 0.01 µM): 0.88
- relative viability (HCC-44; first compound 0.03162 µM): 1.07
- relative viability (HCC-44; first compound 0.3162 µM): 0.912
- relative viability (NCI-H1355; first compound 0.01 µM): 1.33
- relative viability (NCI-H1355; first compound 0.03162 µM): 1.17
- relative viability (NCI-H1355; first compound 0.3162 µM): 1.26
- relative viability (HCC-827; first compound 0.01 µM): 1.16
- relative viability (HCC-827; first compound 0.03162 µM): 1.06
- relative viability (HCC-827; first compound 0.3162 µM): 1.08
- relative viability (LCLC-103H; first compound 0.01 µM): 1.01
- relative viability (LCLC-103H; first compound 0.03162 µM): 1.26
- relative viability (LCLC-103H; first compound 0.3162 µM): 1.14
- relative viability (UMC-11; first compound 0.01 µM): 0.766
- relative viability (UMC-11; first compound 0.03162 µM): 0.86
- relative viability (UMC-11; first compound 0.3162 µM): 0.808
- relative viability (LCLC-97TM1; first compound 0.01 µM): 0.277
- relative viability (LCLC-97TM1; first compound 0.03162 µM): 1
- relative viability (LCLC-97TM1; first compound 0.3162 µM): 0.755
- relative viability (NCI-H322M; first compound 0.01 µM): 1.2
- relative viability (NCI-H322M; first compound 0.03162 µM): 1.32
- relative viability (NCI-H322M; first compound 0.3162 µM): 1.19
- relative viability (NCI-H650; first compound 0.01 µM): 0.71
- relative viability (NCI-H650; first compound 0.03162 µM): 0.946
- relative viability (NCI-H650; first compound 0.3162 µM): 0.84
- relative viability (NCI-H2085; first compound 0.01 µM): 0.991
- relative viability (NCI-H2085; first compound 0.03162 µM): 1.03
- relative viability (NCI-H2085; first compound 0.3162 µM): 1.01
- relative viability (NCI-H1563; first compound 0.01 µM): 0.931
- relative viability (NCI-H1563; first compound 0.03162 µM): 1.01
- relative viability (NCI-H1563; first compound 0.3162 µM): 0.816
- relative viability (ChaGo-K-1; first compound 0.01 µM): 0.96
- relative viability (ChaGo-K-1; first compound 0.03162 µM): 1.22
- relative viability (ChaGo-K-1; first compound 0.3162 µM): 1.16
- relative viability (NCI-H520; first compound 0.01 µM): 0.434
- relative viability (NCI-H520; first compound 0.03162 µM): 0.591
- relative viability (NCI-H520; first compound 0.3162 µM): 0.495
- relative viability (NCI-H1651; first compound 0.01 µM): 0.957
- relative viability (NCI-H1651; first compound 0.03162 µM): 1.02
- relative viability (NCI-H1651; first compound 0.3162 µM): 1.01

Compound: C[C@@H]1CN(CC(=O)Nc2ccc3c(c2)Cc2cccc(-c4cc(=O)cc(N5CCOCC5)o4)c2S3)C[C@H](C)O1 + CC(C)C[C@H](NC(=O)[C@H](Cc1ccccc1)NC(=O)c1cnccn1)B(O)O [Bortezomib] (partner 0.002 µM)
- relative viability (H3255; first compound 0.04 µM): 0.495
- relative viability (H3255; first compound 0.1265 µM): 0.771
- relative viability (H3255; first compound 0.4 µM): 0.534
- relative viability (H3255; first compound 4 µM): 0.582
- relative viability (EMC-BAC-2; first compound 0.04 µM): 1.07
- relative viability (EMC-BAC-2; first compound 0.1265 µM): 1.1
- relative viability (EMC-BAC-2; first compound 0.4 µM): 1.06
- relative viability (EMC-BAC-2; first compound 4 µM): 0.985
- relative viability (NCI-H2087; first compound 0.04 µM): 0.751
- relative viability (NCI-H2087; first compound 0.1265 µM): 0.808
- relative viability (NCI-H2087; first compound 0.4 µM): 0.948
- relative viability (NCI-H2087; first compound 4 µM): 0.652
- relative viability (NCI-H23; first compound 0.04 µM): 1.27
- relative viability (NCI-H23; first compound 0.1265 µM): 1.21
- relative viability (NCI-H23; first compound 0.4 µM): 1.03
- relative viability (NCI-H23; first compound 4 µM): 0.991
- relative viability (NCI-H2405; first compound 0.04 µM): 0.984
- relative viability (NCI-H2405; first compound 0.1265 µM): 0.995
- relative viability (NCI-H2405; first compound 0.4 µM): 0.978
- relative viability (NCI-H2405; first compound 4 µM): 0.994
- relative viability (EPLC-272H; first compound 0.04 µM): 0.925
- relative viability (EPLC-272H; first compound 0.1265 µM): 0.894
- relative viability (EPLC-272H; first compound 0.4 µM): 1.03
- relative viability (EPLC-272H; first compound 4 µM): 0.993
- relative viability (NCI-H1993; first compound 0.04 µM): 1.12
- relative viability (NCI-H1993; first compound 0.1265 µM): 1.08
- relative viability (NCI-H1993; first compound 0.4 µM): 0.763
- relative viability (NCI-H1993; first compound 4 µM): 1.01
- relative viability (HCC-44; first compound 0.04 µM): 0.952
- relative viability (HCC-44; first compound 0.1265 µM): 0.938
- relative viability (HCC-44; first compound 0.4 µM): 0.982
- relative viability (HCC-44; first compound 4 µM): 0.796
- relative viability (NCI-H1355; first compound 0.04 µM): 1.2
- relative viability (NCI-H1355; first compound 0.1265 µM): 1.23
- relative viability (NCI-H1355; first compound 0.4 µM): 1.19
- relative viability (NCI-H1355; first compound 4 µM): 1.18
- relative viability (HCC-827; first compound 0.04 µM): 1.01
- relative viability (HCC-827; first compound 0.1265 µM): 1.02
- relative viability (HCC-827; first compound 0.4 µM): 1.06
- relative viability (HCC-827; first compound 4 µM): 1.09
- relative viability (LCLC-103H; first compound 0.04 µM): 1.19
- relative viability (LCLC-103H; first compound 0.1265 µM): 1.03
- relative viability (LCLC-103H; first compound 0.4 µM): 1.09
- relative viability (LCLC-103H; first compound 4 µM): 0.999
- relative viability (UMC-11; first compound 0.04 µM): 0.778
- relative viability (UMC-11; first compound 0.1265 µM): 0.693
- relative viability (UMC-11; first compound 0.4 µM): 0.919
- relative viability (UMC-11; first compound 4 µM): 0.543
- relative viability (LCLC-97TM1; first compound 0.1265 µM): 0.615
- relative viability (LCLC-97TM1; first compound 0.4 µM): 0.33
- relative viability (LCLC-97TM1; first compound 4 µM): 0.391
- relative viability (NCI-H322M; first compound 0.04 µM): 1.09
- relative viability (NCI-H322M; first compound 0.1265 µM): 1.14
- relative viability (NCI-H322M; first compound 0.4 µM): 1.32
- relative viability (NCI-H322M; first compound 4 µM): 1.12
- relative viability (NCI-H650; first compound 0.04 µM): 0.742
- relative viability (NCI-H650; first compound 0.1265 µM): 0.801
- relative viability (NCI-H650; first compound 0.4 µM): 0.761
- relative viability (NCI-H650; first compound 4 µM): 0.552
- relative viability (NCI-H2085; first compound 0.04 µM): 0.999
- relative viability (NCI-H2085; first compound 0.1265 µM): 1.04
- relative viability (NCI-H2085; first compound 0.4 µM): 0.975
- relative viability (NCI-H2085; first compound 4 µM): 0.805
- relative viability (NCI-H1563; first compound 0.04 µM): 0.89
- relative viability (NCI-H1563; first compound 0.1265 µM): 1.01
- relative viability (NCI-H1563; first compound 0.4 µM): 0.828
- relative viability (NCI-H1563; first compound 4 µM): 0.797
- relative viability (ChaGo-K-1; first compound 0.1265 µM): 1.02
- relative viability (ChaGo-K-1; first compound 0.4 µM): 0.936
- relative viability (ChaGo-K-1; first compound 4 µM): 0.87
- relative viability (NCI-H520; first compound 0.04 µM): 0.906
- relative viability (NCI-H520; first compound 0.1265 µM): 0.671
- relative viability (NCI-H520; first compound 0.4 µM): 0.247
- relative viability (NCI-H520; first compound 4 µM): 0.584
- relative viability (NCI-H1651; first compound 0.04 µM): 0.848
- relative viability (NCI-H1651; first compound 0.1265 µM): 0.866
- relative viability (NCI-H1651; first compound 0.4 µM): 0.922
- relative viability (NCI-H1651; first compound 4 µM): 0.976
